Our source for the MIC, Activity and MFC values is ChEMBL document CHEMBL1938270, “Synthesis and antifungal activity of natural product-based 6-alkyl-2,3,4,5-tetrahydropyridines” (J Nat Prod, 2011).

Molecules are shown by their SMILES. ≈ marks a conversion by molar mass, not a printed value. Calls of active or inactive are those of the source.

Series [1] deals with Candida albicans. Put plainly: Antifungal activity against Candida albicans ATCC 90028 at 20 ug/ml after 24 to 72 hrs by M27-A2 CLSI method. The class given is functional, organism-based.
A further series concerns SK-MEL. Put plainly: Cytotoxicity against human SK-MEL cells at 10 ug/ml by neutral red assay. The class given is cell-based.
Series [2] deals with Cryptococcus neoformans. Put plainly: Antifungal activity against Cryptococcus neoformans ATCC 90113 after 24 to 72 hrs by M27-A2 CLSI method. The class given is functional.
Series [3] has as its system Nakaseomyces glabratus. Kind of series: Antifungal activity against Candida glabrata ATCC 90030 after 24 to 72 hrs by M27-A2 CLSI method. The series is classed as functional.
A further series concerns Vero. Put plainly: Cytotoxicity against african green monkey Vero cells at 10 ug/ml by neutral red assay. The series is classed as cell-based. As to conditions: chlorocebus sabaeus.
The subject of another series is KB. Kind of series: Cytotoxicity against human KB cells at 10 ug/ml by neutral red assay. The class given is cell-based.
The test system of a further series is LLC-PK1. Kind of series: Cytotoxicity against pig LLC-PK1 cells at 10 ug/ml by neutral red assay. The series is classed as cell-based, Sus scrofa.
The subject of a further series is SK-OV-3. Kind of series: Cytotoxicity against human SKOV3 cells at 10 ug/ml by neutral red assay. The class given is cell-based.
The test system of series [4] is Pichia kudriavzevii. Kind of series: Antifungal activity against Candida Krusei ATCC 6258 at 20 ug/ml after 24 to 72 hrs by M27-A2 CLSI method. The series is classed as functional, organism-based.
The test system of a further series is BT-549. Kind of series: Cytotoxicity against human BT549 cells at 10 ug/ml by neutral red assay. The series is classed as cell-based.
Series [5] relates to Pichia kudriavzevii. Put plainly: Antifungal activity against Candida Krusei ATCC 6258 after 24 to 72 hrs by M27-A2 CLSI method. The series is classed as functional.
The subject of series [6] is Aspergillus fumigatus. Put plainly: Antifungal activity against Aspergillus fumigatus ATCC 204305 after 24 to 72 hrs by M27-A2 CLSI method. The series is classed as functional, organism-based.
Series [7] deals with Nakaseomyces glabratus. Put plainly: Antifungal activity against Candida glabrata ATCC 90030 at 20 ug/ml after 24 to 72 hrs by M27-A2 CLSI method. The class given is functional, organism-based.
Series [8] deals with Aspergillus fumigatus. Kind of series: Antifungal activity against Aspergillus fumigatus ATCC 204305 at 20 ug/ml after 24 to 72 hrs by M27-A2 CLSI method. The class given is functional, organism-based.
For series [9], the system named is Cryptococcus neoformans. Put plainly: Antifungal activity against Cryptococcus neoformans ATCC 90113 at 20 ug/ml after 24 to 72 hrs by M27-A2 CLSI method. The class given is functional, organism-based.
In series [10] the test system is Candida albicans. Put plainly: Antifungal activity against Candida albicans ATCC 90028 after 24 to 72 hrs by M27-A2 CLSI method. The class given is functional.

As a reminder, the MIC is the lowest concentration that inhibits growth of the organism. One may read the MFC as the smallest concentration meeting the test's criterion for killing the fungus. As for `CCCCCCCCCCCCCCCCCCC1=NCCCC1`, the MIC result in the series with Candida albicans [1] and in the series with Pichia kudriavzevii [4] was “inactive” in each case. Also, the Activity entry in the series with SK-MEL, with Vero, in the series with KB, in the series with LLC-PK1, in the series on SK-OV-3 and in the series on BT-549 was “Non-toxic” each time. Further, the MFC in the series with Cryptococcus neoformans [2] and with Nakaseomyces glabratus [3] was 15 µg/mL (≈ 44.7 µM) throughout. The MIC with Cryptococcus neoformans [2] and in the series on Nakaseomyces glabratus [3] was 10 µg/mL (≈ 29.8 µM) each time.
Regarding `CCCCCCCCCCCCCCCCCC1=NCCCC1`, the MIC result with Candida albicans [1] is “inactive”. Moreover, the Activity entry in the series on SK-MEL, in the series with Vero, with KB, with LLC-PK1, in the series with SK-OV-3 and with BT-549 was “Non-toxic” throughout. For the same compound, the results for the MFC against Cryptococcus neoformans [2], in the series on Nakaseomyces glabratus [3] and in the series with Pichia kudriavzevii [5] were 3.8 µg/mL (≈ 11.8 µM), 7.5 µg/mL (≈ 23.3 µM) and 15 µg/mL (≈ 46.6 µM), respectively. Moreover, the figures for the MIC with Cryptococcus neoformans [2], in the series with Nakaseomyces glabratus [3] and in the series with Pichia kudriavzevii [5] were 2.5 µg/mL (≈ 7.77 µM), 5 µg/mL (≈ 15.5 µM) and 15 µg/mL (≈ 46.6 µM), respectively.
As to `CCCCCCCCCCCCC1=NCCCC1`, the outcome in the series with Aspergillus fumigatus [6], with Candida albicans [1], with Nakaseomyces glabratus [7], in the series on Aspergillus fumigatus [8] and with Cryptococcus neoformans [9] was inactive.
Turning to `CCCCCCCCCCCCCCCCC1=NCCCC1`, the Activity entry in the series with SK-MEL, in the series on Vero, with KB, with LLC-PK1, in the series on SK-OV-3 and in the series with BT-549 was “Non-toxic” each time. For the same compound, the MFC in the series on Cryptococcus neoformans [2] is 3.8 µg/mL (≈ 12.4 µM); with Nakaseomyces glabratus [3] it was 7.5 µg/mL (≈ 24.4 µM); in the series with Candida albicans [10] it was 15 µg/mL (≈ 48.8 µM); in the series on Pichia kudriavzevii [5] it was 7.5 µg/mL (≈ 24.4 µM). Further, the MIC was 3.8 µg/mL (≈ 12.4 µM) in the series with Cryptococcus neoformans [2], 7.5 µg/mL (≈ 24.4 µM) in the series on Nakaseomyces glabratus [3], 15 µg/mL (≈ 48.8 µM) with Candida albicans [10] and 7.5 µg/mL (≈ 24.4 µM) with Pichia kudriavzevii [5].
For `CCCCCCCCCCCCCCC1=NCCCC1`, the MIC entry in the series with Candida albicans [1], in the series with Nakaseomyces glabratus [7] and with Pichia kudriavzevii [4] was “inactive” throughout. Moreover, the Activity result in the series on SK-MEL, in the series on Vero, in the series on KB, in the series with LLC-PK1, in the series with SK-OV-3 and in the series on BT-549 was “Non-toxic” each time. This compound also displayed an MFC in the series on Cryptococcus neoformans [2] of 10 µg/mL (≈ 35.8 µM). The MIC with Cryptococcus neoformans [2] amounted to 10 µg/mL (≈ 35.8 µM).
Take `CCCCCCCCCCCCCC1=NCCCC1`: the outcome in the series on Aspergillus fumigatus [6], in the series with Candida albicans [1], in the series with Nakaseomyces glabratus [7], in the series with Aspergillus fumigatus [8] and in the series on Cryptococcus neoformans [9] was inactive.
Turning to `C[C@@H]1[C@H](O)[C@@H](C)/C=C/C=C/C=C/C=C/C=C/C=C/C=C/[C@H](O[C@@H]2O[C@H](C)[C@@H](O)[C@H](N)[C@@H]2O)C[C@@H]2O[C@](O)(C[C@@H](O)C[C@@H](O)[C@H](O)CC[C@@H](O)C[C@@H](O)CC(=O)O[C@H]1C)C[C@H](O)[C@H]2C(=O)O` [AMPHOTERICIN B], the MFC was 0.47 µg/mL (≈ 0.509 µM) against Cryptococcus neoformans [2], 0.94 µg/mL (≈ 1.02 µM) against Nakaseomyces glabratus [3] and 1.25 µg/mL (≈ 1.35 µM) with Pichia kudriavzevii [5]. Besides, the MIC stood at 0.47 µg/mL (≈ 0.509 µM) in the series on Cryptococcus neoformans [2], 0.63 µg/mL (≈ 0.682 µM) in the series with Nakaseomyces glabratus [3], 0.47 µg/mL (≈ 0.509 µM) against Candida albicans [10] and 1.25 µg/mL (≈ 1.35 µM) in the series with Pichia kudriavzevii [5].
On to `CCCCCCCCCCCCCCCC1=NCCCC1`, for which the MIC result in the series on Candida albicans [1] is “inactive”. The Activity result in the series on SK-MEL, with Vero, in the series with KB, in the series on LLC-PK1, in the series on SK-OV-3 and in the series with BT-549 was “Non-toxic” throughout. The MFC in the series on Cryptococcus neoformans [2] was found to be 12.5 µg/mL (≈ 42.6 µM); with Nakaseomyces glabratus [3], 15 µg/mL (≈ 51.1 µM); in the series on Pichia kudriavzevii [5], 15 µg/mL (≈ 51.1 µM). The MIC in the series with Cryptococcus neoformans [2] was 11.2 µg/mL (≈ 38.2 µM); with Nakaseomyces glabratus [3], 10 µg/mL (≈ 34.1 µM); with Pichia kudriavzevii [5], 10 µg/mL (≈ 34.1 µM).
